Assay results published in patent US7364866B2, “Drosophila G protein coupled receptors, nucleic acids, and methods related to the same” (Pharmacia & Upjohn Company, priority 1999, dated 2008).
Non-standard residues stand in square brackets, D forms with d. No end group written: not given here. sY = N[C@@H](Cc1ccc(OS(=O)(=O)O)cc1)C(=O)O

Experiments:
[1] = test system: DmGPCR9; assay: calcium mobilization assay (FLIPR); type: cell-based, Drosophila melanogaster; details: given in words
Method: Changes in intracellular calcium levels are another recognized indicator of G protein-coupled receptor activity, and such assays can be employed to screen for modulators of DmGPCR activity. For example, CHO cells stably transfected with a DmGPCR expression vector are plated at a density of 4×10^4 cells/well in Packard black-walled, 96-well plates specially designed to discriminate fluorescence signals emanating from the various wells on the plate. The cells are incubated for 60 minutes at 37° C. in modified Dulbecco's PBS (D-PBS) containing 36 mg/L pyruvate and 1 g/L glucose and one of four calcium indicator dyes (Fluo-3™ AM, Fluo-4™ AM, Calcium Green™-1 AM, or Oregon Green™ 488 BAPTA-1 AM), each at a concentration of 4 μM. […]
A calcium response is initiated by the addition of one or more candidate receptor agonist compounds, calcium ionophore A23187 (10 μM; positive control), or ATP (4 μM; positive control). Fluorescence is measured by Molecular Device's FLIPR with an argon laser (excitation at 488 nm). […] Basal fluorescence of cells was measured for 20 seconds prior to addition of candidate agonist, ATP, or A23187, and the basal fluorescence level was subtracted from the response signal. The calcium signal is measured for approximately 200 seconds, taking readings every two seconds. […]

[2] = test system: DmGPCR9; assay: [35S]GTPγS binding assay, membranes of transfected CHO cells; type: biochemical, Drosophila melanogaster; details: membranes from CHO cells transfected with DmGPCR9
Method: The transfected cells were washed once with ice-cold Dulbecco's phosphate buffered saline (PBS), 5 ml per 10 cm plate, and scraped into 5 ml of the same buffer. Cell suspensions from multiple plates were combined and centrifuged at 500×g for 10 min at 4° C. The cell pellet was reconstituted in ice-cold TEE (25 mM TRIS, 5 mM EGTA, 5 mM EDTA). Convenient aliquots were snap-frozen in liquid nitrogen and stored at −70° C. After thawing, the cells were homogenized and centrifuged at 4° C., 500×g for 5 minutes to pellet nuclei and unbroken cells. The supernatant was centrifuged at 47,000×g for 30 minutes at 4° C. […] Membrane protein concentration was determined using the BCA Protein Assay Reagent from Pierce (Rockford, Ill.) and BSA as standard. […]
Ligand-induced stimulation of [^35S]GTPγS binding was expressed as fold increase over the basal activity with no ligand added. Each treatment was run either in triplicate, or, on occasion, in duplicate, and the binding (cpm) was calculated as means +/− standard deviations. Dose-response curves for the receptor/ligand systems were analyzed using a non-linear least square SAS model, y=Bmax X/(Kd+X). Other dose-response curves were analyzed using Prism (GraphPad Software, Inc. San Diego, Calif.) and the following equation y=Bottom+(Top−Bottom)/(1+10^LogEC50-X). […]

DmGPCR9, sequence (as listed by the source): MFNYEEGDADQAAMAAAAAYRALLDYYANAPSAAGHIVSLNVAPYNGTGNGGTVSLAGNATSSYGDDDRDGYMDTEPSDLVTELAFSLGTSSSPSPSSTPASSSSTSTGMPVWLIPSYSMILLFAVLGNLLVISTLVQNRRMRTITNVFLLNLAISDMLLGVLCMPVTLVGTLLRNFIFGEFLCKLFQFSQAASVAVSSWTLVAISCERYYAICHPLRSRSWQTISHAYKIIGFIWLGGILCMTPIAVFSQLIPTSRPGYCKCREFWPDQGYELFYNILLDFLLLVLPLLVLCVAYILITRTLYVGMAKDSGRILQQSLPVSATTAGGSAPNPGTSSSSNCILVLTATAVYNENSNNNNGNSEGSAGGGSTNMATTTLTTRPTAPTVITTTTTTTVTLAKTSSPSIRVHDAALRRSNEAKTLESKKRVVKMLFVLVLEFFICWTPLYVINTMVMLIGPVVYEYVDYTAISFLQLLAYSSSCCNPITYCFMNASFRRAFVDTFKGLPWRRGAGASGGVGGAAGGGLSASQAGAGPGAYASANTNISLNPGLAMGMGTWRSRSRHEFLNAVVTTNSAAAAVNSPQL

**Q.** What does the source list for “FDDY(SO3H)GHLRF-NH2 (FDD[sY]GHLRF-NH2; N-terminus assumed; SMILES CC(C)C[C@H](NC(=O)[C@H](Cc1c[nH]cn1)NC(=O)CNC(=O)[C@H](Cc1ccc(OS(=O)(=O)O)cc1)NC(=O)[C@H](CC(=O)O)NC(=O)[C@H](CC(=O)O)NC(=O)[C@@H](N)Cc1ccccc1)C(=O)N[C@@H](CCCNC(=N)N)C(=O)N[C@@H](Cc1ccccc1)C(N)=O)”?
**A.** EC50, calcium mobilization assay [1]: low nanomolar range; GTPγS responses [2]: no GTPγS responses
